According to article PMC10709409, “Cryo-EM structures of human organic anion transporting polypeptide OATP1B1” (Cell Research, 2023):

Legend:
OATP1B1 [1] = molecular target: T1, OATP1B1 (Homo sapiens, UniProt Q9Y6L6); set-up: gene SLCO1B1
T1 sequence (Q9Y6L6 1-691): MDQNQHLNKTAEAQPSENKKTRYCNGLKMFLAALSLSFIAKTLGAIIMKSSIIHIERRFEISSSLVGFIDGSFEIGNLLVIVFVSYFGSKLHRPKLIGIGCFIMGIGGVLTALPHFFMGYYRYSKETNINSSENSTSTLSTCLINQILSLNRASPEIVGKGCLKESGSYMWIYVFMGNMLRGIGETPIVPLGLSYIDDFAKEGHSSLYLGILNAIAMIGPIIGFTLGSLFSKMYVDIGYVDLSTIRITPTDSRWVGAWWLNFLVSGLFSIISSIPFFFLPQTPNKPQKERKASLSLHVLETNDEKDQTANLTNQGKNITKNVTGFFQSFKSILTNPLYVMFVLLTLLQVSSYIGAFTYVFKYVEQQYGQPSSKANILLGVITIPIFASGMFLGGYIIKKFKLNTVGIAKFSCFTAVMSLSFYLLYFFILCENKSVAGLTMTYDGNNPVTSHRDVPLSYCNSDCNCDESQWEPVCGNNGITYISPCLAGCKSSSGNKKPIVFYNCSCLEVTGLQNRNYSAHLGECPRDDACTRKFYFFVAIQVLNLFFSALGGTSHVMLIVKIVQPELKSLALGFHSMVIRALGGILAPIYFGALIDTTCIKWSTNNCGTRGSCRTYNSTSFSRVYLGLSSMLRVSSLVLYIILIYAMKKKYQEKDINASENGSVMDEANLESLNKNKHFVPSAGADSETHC

OATP1B1 [2] = molecular target: T1, OATP1B1; experiment: cryo-EM structure (outward-open, […] Å); also cell DCF uptake assay; format: binding; set-up: gene SLCO1B1; human OATP1B1 with C-terminal tandem His and Flag tags
OATP1B1 [3] = molecular target: T1, OATP1B1; experiment: cryo-EM structure (inward-open, […] Å); also [3H]-E3S proteoliposome counterflow and DCF uptake inhibition; format: binding; set-up: gene SLCO1B1; human OATP1B1 with C-terminal tandem His and Flag tags

Row | SMILES | cryo-EM structure (outward-open, 3.73 Å); also DCF uptake inhibition in HEK293T (OATP1B1 [1]) | further results
1 | C=CC1=C(C)/C(=C/c2[nH]c(Cc3[nH]c(/C=C4\NC(=O)C(C)=C4C=C)c(C)c3CCC(=O)O)c(CCC(=O)O)c2C)NC1=O [B, bilirubin] | Bilirubin and simeprevir occupy the major pocket located in the central cavity, while DCF binds to the minor pocket | 
2 | O=C1OC2(c3cc(Cl)c(O)cc3Oc3cc(O)c(Cl)cc32)c2ccccc21 [D, 2′,7′-dichlorofluorescein] |  | cryo-EM structure (outward-open, 2.92 Å); also cell DCF uptake assay (OATP1B1 [2]): DCF extends towards a minor hydrophilic pocket within the interior of the CTD by forming hydrogen-bond interactions with N544 and S548
3 | C[C@]12CC[C@H]3c4ccc(OS(=O)(=O)O)cc4CC[C@@H]3[C@@H]1CCC2=O [E, estrone-3-sulfate] |  | cryo-EM structure (inward-open, 3.2 Å); also [3H]-E3S proteoliposome counterflow (OATP1B1 [3]): The EM density of E3S in OATP1B1–Ein is unambiguously resolved, allowing us to discern the pose of the E3S
4 | COc1ccc2c(O[C@@H]3C[C@H]4C(=O)N[C@]5(C(=O)NS(=O)(=O)C6CC6)C[C@H]5/C=C\CCCCN(C)C(=O)[C@@H]4C3)cc(-c3nc(C(C)C)cs3)nc2c1C [S, simeprevir] | Bilirubin and simeprevir occupy the major pocket located in the central cavity, while DCF binds to the minor pocket | 
